Measured values from patent US8765767B2, “Positive allosteric modulators of mGluR2” (Bristol-Myers Squibb Company, priority 2012, dated 2014).

Biological target: T1, human mGluR2 (Homo sapiens, UniProt Q14416)
T1 construct: expressed in transfected cells; host or cells: HEK293 clonal line
Test: mGluR2 cAMP assay (HTRF) in HEK293 cells clonally expressing human mGluR2
Type: cell-based
Conditions: HEK293 cells expressing human mGluR2, 1 μM forskolin, 1 μM LY-341495, 30 min
Protocol: • Cell Culture. Clonally expressed human mGluR2 in HEK293 background was glutamate starved overnight in media without glutamine (GIBCO MEM 12360), containing 10% FBS, 1% penicillin streptomycin. • cAMP Measurement. On the day of the assay, media was removed, cells washed with PBS, cells harvested and pelleted by centrifugation. Cell pellets were resuspended in stimulation buffer without forskolin and counted. A solution of 1.25×10^6 cells/mL was prepared and dispensed to plates using a Combi liquid handler (Thermo). A standard curve was created using a top concentration of cAMP of 1 μM in the stimulation buffer, 1:3 dilutions over 14 points in the absence of cells. Plates were read by time-resolved fluorescence at […] and a ratio was calculated via in house software, (665 nM/618 nM)*10^4. In house software converted the fluorescence value ratios to units of cAMP concentration, which is then used to calculate % inhibition for each test compound. • MGluR2 cAMP Assay Materials and Methods. Compounds were added to white, standard volume 384 non-binding surface plates (Corning 3574). Cells were resuspended in stimulation buffer consisting of Hanks Balanced Salt Solution (14175-095) pH 7.0, 20 mM HEPES, 2.0 mM CaCl2, 5.0 mM MgCl2, and 1 mM IBMX (Sigma 15879), 1 μM forskolin, and 1 μM LY-341495 for 30 min. Buffer without forskolin was used as a negative control. Solutions of D2 and cryptate detection reagents from the CISBIO dynamic cAMP kit (62AM4PEJ) were diluted 1:40 in lysis buffer. Lysis buffer consisted of 50 mM Phosphate Buffer pH 7.0, 800 mM Potassium Fluoride, 0.2% BSA, and 1.0% Triton. Assay reaction was terminated by addition of detection reagents in lysis buffer. One hour later, plates were read on a PE Viewlux. Data was extracted, and concentration response curves generated by fitting the data to a standard 4 parameter logistic equation from which EC50 values were determined.

T1 sequence (Q14416 19-872): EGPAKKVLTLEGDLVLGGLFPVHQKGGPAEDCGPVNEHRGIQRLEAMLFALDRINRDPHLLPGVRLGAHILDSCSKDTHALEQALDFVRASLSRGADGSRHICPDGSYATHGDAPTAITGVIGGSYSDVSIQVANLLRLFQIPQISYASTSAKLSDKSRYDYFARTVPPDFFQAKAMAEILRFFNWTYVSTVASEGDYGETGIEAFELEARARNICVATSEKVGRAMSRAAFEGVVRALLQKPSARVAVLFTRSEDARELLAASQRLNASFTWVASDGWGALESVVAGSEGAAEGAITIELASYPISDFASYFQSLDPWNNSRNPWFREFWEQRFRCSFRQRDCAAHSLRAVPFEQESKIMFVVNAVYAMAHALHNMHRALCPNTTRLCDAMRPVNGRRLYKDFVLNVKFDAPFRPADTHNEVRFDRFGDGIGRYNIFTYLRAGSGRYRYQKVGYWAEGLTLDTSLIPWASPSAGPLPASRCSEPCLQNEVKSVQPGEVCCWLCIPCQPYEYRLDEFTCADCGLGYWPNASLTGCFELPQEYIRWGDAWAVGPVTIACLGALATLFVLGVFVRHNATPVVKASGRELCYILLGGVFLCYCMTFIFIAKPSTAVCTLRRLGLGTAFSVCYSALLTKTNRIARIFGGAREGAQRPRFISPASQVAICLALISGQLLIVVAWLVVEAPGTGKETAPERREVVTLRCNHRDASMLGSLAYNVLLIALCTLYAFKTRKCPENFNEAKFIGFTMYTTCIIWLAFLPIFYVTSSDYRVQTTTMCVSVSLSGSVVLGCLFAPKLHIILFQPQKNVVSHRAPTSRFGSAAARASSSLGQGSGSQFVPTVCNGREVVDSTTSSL

| EC50 [nM] | SMILES |
| --- | --- |
| 2 | CN(C[C@H]1C[C@@H]1c1ccc(F)cc1)c1ccn2c(CC(F)(F)F)nnc2c1C(F)(F)F [Example 41, N-(((1S,2S)-2-(4-fluorophenyl)cyclopropyl)methyl)-N-methyl-3-(2,2,2-trifluoroethyl)-8-(trifluoromethyl)-[1,2,4]triazolo[4,3-a]pyridin-7-amine] |
| 41 | Fc1ccc(C2CC2CNc2ccn3c(CC(F)(F)F)cnc3c2C(F)(F)F)cc1 (stereo not drawn) [Example 25, N-((2-(4-Fluorophenyl)cyclopropyl)methyl)-3-(2,2,2-trifluoroethyl)-8-(trifluoromethyl)imidazo[1,2-a]pyridin-7-amine] |
| 4 | FC(F)(F)Oc1ccccc1[C@@H]1C[C@H]1CNc1ccn2c(CC3CC3)nnc2c1Cl (relative stereo) [Example 9, Trans-8-chloro-3-(cyclopropylmethyl)-N-((2-(2-(trifluoromethoxy)phenyl)cyclopropyl)methyl)-[1,2,4]triazolo[4,3-a]pyridin-7-amine] |
| 31 | CC(Nc1ccn2c(CC3CC3)nnc2c1Cl)[C@H]1C[C@@H]1c1ccc(F)cc1 (stereo partly drawn) [Example 15, 8-Chloro-3-(cyclopropylmethyl)-N-(1-((1S,2S)-2-(4-fluorophenyl)cyclopropyl)ethyl)-[1,2,4]triazolo[4,3-a]pyridin-7-amine] |
| 6 | COc1c(F)ccc(F)c1[C@H]1C[C@@H]1CNc1ccn2c(CC3CC3)nnc2c1Cl [Example 10, 8-Chloro-3-(cyclopropylmethyl)-N-(((1S,2S)-2-(3,6-difluoro-2-methoxyphenyl)cyclopropyl)methyl)-[1,2,4]triazolo[4,3-a]pyridin-7-amine] |
| 2 | Clc1c(NC[C@@H]2C[C@H]2c2cccc3c2OCC3)ccn2c(CC3CC3)nnc12 [Example 36, 8-Chloro-3-(cyclopropylmethyl)-N-(((1R,2R)-2-(2,3-dihydrobenzofuran-7-yl)cyclopropyl)methyl)-[1,2,4]triazolo[4,3-a]pyridin-7-amine] |
| 1 | CN(C[C@H]1C[C@@H]1c1ccc(F)cc1)c1ccn2c(CC3CC3)nnc2c1C(F)(F)F [Example 39, 3-(Cyclopropylmethyl)-N-(((1S,2S)-2-(4-fluorophenyl)cyclopropyl)methyl)-N-methyl-8-(trifluoromethyl)-[1,2,4]triazolo[4,3-a]pyridin-7-amine] |
| 6 | FC(F)Oc1ccccc1[C@@H]1C[C@H]1CNc1ccn2c(CC3CC3)nnc2c1Cl (relative stereo) [Example 7, Trans-8-chloro-3-(cyclopropylmethyl)-N-((2-(2-(difluoromethoxy)phenyl)cyclopropyl)methyl)-[1,2,4]triazolo[4,3-a]pyridin-7-amine] |
| 7 | COc1ccccc1[C@@H]1C[C@H]1CNc1ccn2c(CC3CC3)nnc2c1Cl (relative stereo) [Example 6, Trans-8-chloro-3-(cyclopropylmethyl)-N-((2-(2-methoxyphenyl)cyclopropyl)methyl)-[1,2,4]triazolo[4,3-a]pyridin-7-amine] |
| 20 | COc1cccc(F)c1C1CC1CNc1ccn2c(CC(F)(F)F)cnc2c1C#N (stereo not drawn) [Example 27, 7-(((2-(2-Fluoro-6-methoxyphenyl)cyclopropyl)methyl)amino)-3-(2,2,2-trifluoroethyl)imidazo[1,2-a]pyridine-8-carbonitrile] |
| 83 | Fc1cnc(C2CC2CNc2ccn3c(CC4CC4)nnc3c2Cl)nc1 (stereo not drawn) [Example 12, 8-Chloro-3-(cyclopropylmethyl)-N-((2-(5-fluoropyrimidin-2-yl)cyclopropyl)methyl)-[1,2,4]triazolo[4,3-a]pyridin-7-amine] |
| 55 | CC(Nc1ccn2c(CC3CC3)nnc2c1Cl)[C@@H]1C[C@H]1c1ccc(F)cc1 (stereo partly drawn) [Example 14, 8-Chloro-3-(cyclopropylmethyl)-N-(1-((1R,2R)-2-(4-fluorophenyl)cyclopropyl)ethyl)-[1,2,4]triazolo[4,3-a]pyridin-7-amine] |
| 5 | Clc1c(NC[C@@H]2CCC[C@H]2c2ccccc2)ccn2c(CC3CC3)nnc12 (racemic) [Example 3, (+/−)Trans-8-chloro-3-(cyclopropylmethyl)-N-((2-phenylcyclopentyl)methyl)-[1,2,4]triazolo[4,3-a]pyridin-7-amine] |
| 244 | Clc1c(NCC2CC2c2ccncc2)ccn2c(CC3CC3)nnc12 (stereo not drawn) [Example 18, 8-Chloro-3-(cyclopropylmethyl)-N-((2-(pyridin-4-yl)cyclopropyl)methyl)-[1,2,4]triazolo[4,3-a]pyridin-7-amine] |

System: mGluR2/3
Test: not given
Conditions: rats treated with PCP; cited from earlier work

| SMILES | behavioral effects of PCP (hyper-locomotion, working memory deficits) | brain glutamate levels |
| --- | --- | --- |
| N[C@@]1(C(=O)O)CC[C@H]2[C@H](C(=O)O)[C@H]21 [LY-354740] | reversed the behavioral effects of PCP | lowered brain glutamate levels |

System: mGluR2/3
Test: not given
Conditions: GAD patients; cited from earlier work

| SMILES | therapeutic effect for anxiety |
| --- | --- |
| C[C@H](N)C(=O)N[C@@]1(C(=O)O)CC[C@H]2[C@H](C(=O)O)[C@H]21 [LY-544344] | therapeutic effects |

System: mGluR2/3
Test: not given
Conditions: schizophrenia patients; cited from earlier work

| SMILES | relief of positive and negative symptoms |
| --- | --- |
| CSCC[C@H](N)C(=O)N[C@@]1(C(=O)O)CS(=O)(=O)[C@H]2[C@H](C(=O)O)[C@H]21 [LY-2140023] | relief of positive and negative symptoms |
